Peptide text beside a SMILES is read from it. * marks the point of attachment. pNA = O=[N+]([O-])c1ccc(N*)cc1; Cbz = O=C(OCc1ccccc1)*; Boc = CC(C)(C)OC(=O)*
Tested on: peptide amidase
Test: Effect of chelating agents, metal cations and enzyme inhibitors on peptide amidase activity
Format: biochemical, navel oranges
Settings: inhibitor 0.01 m (10 mM); standard conditions of Example 1
Description: The effect of the following inhibitors on peptide amidase activity was determined under standard conditions according to the methods described in Example 1. The inhibitor concentration was 10 mM in each case.

| Compound | % activity remaining [%] |
| --- | --- |
| [N-]=[N+]=[N-].[Na+] [NaN3] | 100 |
| N[C@@H]1CON=C1O [Cycloserine] | 100 |
| C[C@@H]1C[C@@H]([C@H](O)CC2CC(=O)NC(=O)C2)C(=O)[C@@H](C)C1 [Cycloheximide] | 98 |
| NNC(N)=O [Semicarbazide] | 102 |

Tested on: peptide amidase
Test: not given
Settings: 5.0% solvent
Description: A reaction mixture comprising the following constituents was employed:
850 μl of the particular solvent/tris (50 mM; pH 7.5) mixture
100 μl of substrate (10 mM Z-Gly-Tyr-NH2)
50 μl of amidase (40 μg of protein)
The reaction was initiated by the addition of the enzyme to prevent inactivation of the enzyme prior to the reaction.

| Compound | Activity [U/mg] |
| --- | --- |
| CCCO [Propanol] | 0.927 |
| CC(C)=O [Acetone] | 2.011 |
| CCO [Ethanol] | 1.269 |

Same assay, conditions: 18.0% solvent

| Compound | Activity [U/mg] |
| --- | --- |
| CCCO [Propanol] | 0.772 |
| CC(C)=O [Acetone] | 1.863 |
| CCO [Ethanol] | 0.938 |

Same assay, conditions: 27.0% solvent

| Compound | Activity [U/mg] |
| --- | --- |
| CCCO [Propanol] | 0.474 |
| CC(C)=O [Acetone] | 1.748 |
| CCO [Ethanol] | 0.814 |

Same assay, conditions: 36.0% solvent

| Compound | Activity [U/mg] |
| --- | --- |
| CCCO [Propanol] | 0.342 |
| CC(C)=O [Acetone] | 1.527 |
| CCO [Ethanol] | 0.613 |

Same assay, conditions: 45.0% solvent

| Compound | Activity [U/mg] |
| --- | --- |
| CCCO [Propanol] | 0.12 |
| CC(C)=O [Acetone] | 1.38 |
| CCO [Ethanol] | 0.448 |

Same assay, conditions: 54.0% solvent

| Compound | Activity [U/mg] |
| --- | --- |
| CCCO [Propanol] | 0.1 |
| CCO [Ethanol] | 0.284 |

Same assay, conditions: 63.0% solvent

| Compound | Activity [U/mg] |
| --- | --- |
| CCCO [Propanol] | 0.1 |
| CCO [Ethanol] | 0.204 |

Same assay, conditions: 72.0% solvent

| Compound | Activity [U/mg] |
| --- | --- |
| CCCO [Propanol] | 0.1 |
| CC(C)=O [Acetone] | 0.585 |
| CCO [Ethanol] | 0.149 |

Same assay, conditions: 89.1% solvent; substrate Z-Gly-Tyr-NH2

| Compound | Activity [U/mg] |
| --- | --- |
| CCCO [Propanol] | 0.05 |
| CC(C)=O [Acetone] | 0.224 |
| CCO [Ethanol] | 0.083 |

Tested on: peptide amidase
Test: Enzymatic cleavage of N-terminal protected dipeptide amides
Format: biochemical, orange
Settings: comparison, 12 h
Source text: The results in Table 7 were obtained using an eluent: TBA/acetonitrile 60/40 (% volume)

| Compound | reaction (in words) |
| --- | --- |
| N=C(N)NCCC[C@H](NC(=O)OCc1ccccc1)C(=O)N[C@@H](CCCNC(=N)N)C(=O)Nc1ccc([N+](=O)[O-])cc1 [Z--Arg--Arg--pNa, reference compound] (Cbz-Arg-Arg-pNA) | No reaction in 12 h |

Same assay, conditions: enzymatic cleavage of the C-terminal amide

| Compound | Yield [%] |
| --- | --- |
| Bz--Tyr--Ile--NH2 | 100 |
| Bz--Tyr--Lys--NH2 | 100 |
| Mal--Tyr--Arg--NH2 | 100 |
| Bz--Tyr--Trp--NH2 | 39 |
| Bz--Tyr--Val--NH2 | 100 |
| Bz--Tyr--Leu--NH2 | 100 |
| Bz--Tyr--Ala--NH2 | 65 |
| Bz--Tyr--Ser--NH2 | 41 |
| Bz--Tyr--Thr--NH2 | 63 |

Same assay, conditions: peptide amidase

| Yield [%] | Compound |
| --- | --- |
| 100 | N=C(N)NCCC[C@H](NC(=O)[C@H](Cc1ccc(O)cc1)NC=O)C(N)=O [For--Tyr--Arg--NH2] |
| 90 | CC(C)C[C@H](NC(=O)[C@@H]1CCCN1C(=O)OCc1ccccc1)C(=O)NCC(N)=O [Z--Pro--Leu--Gly--NH2] (Cbz-Pro-Leu-Gly-NH2) |
| 100 | CC(C)C[C@H](NC(=O)CNC(=O)CNC(=O)OCc1ccccc1)C(N)=O [Z--Gly--Gly--Leu--NH2] (Cbz-Gly-Gly-Leu-NH2) |
| 20 | CC(C)C[C@H](NC(=O)OC(C)(C)C)C(=O)N[C@H](C(N)=O)C(C)C [Boc--Leu--Val--NH2] (Boc-Leu-Val-NH2) |
| 95 | CC(C)C[C@H](NC(=O)CNC(c1ccccc1)(c1ccccc1)c1ccccc1)C(=O)N[C@H](C(N)=O)C(C)C [Trt--Gly--Leu--Val--NH2] |
| 100 | NC(=O)[C@H](Cc1ccccc1)NC(=O)[C@@H]1CCCN1C(=O)OCc1ccccc1 [Z--Pro--Phe--NH2] (Cbz-Pro-Phe-NH2) |
| 100 | NC(=O)[C@H](Cc1ccccc1)NC(=O)CNC(=O)OCc1ccccc1 [Z--Gly--Phe--NH2] (Cbz-Gly-Phe-NH2) |

Tested on: peptide amidase
Test: Enzymatic reaction of peptide amides with a chain length of greater than three amino acids
Format: biochemical, orange
Settings: 10 mM substrate, 40 μg/ml peptide amidase, 50 mM tris/HCL, pH 7.0, 30° C.; 360 min
Description: Enzymatic reaction of peptide amides with a chain length of greater than
three amino acids. Reaction conditions: 10 mM substrate, 40 μg/ml
50 mM tris/HCL, pH 7.0, temp. 30° C.

| Compound | Yield [%/6 h] |
| --- | --- |
| Luteinizing Hormone Releasing Factor [LHRH] | 90 |
| Boc--cys(bzl)--Pro--Arg--Gly--NH2 | 90 |
| CC(C)C[C@H](NC(=O)[C@H](Cc1ccccc1)NC(=O)CNC(=O)CNC(=O)[C@@H](N)Cc1ccc(O)cc1)C(N)=O [H--Tyr--Gly--Gly--Phe--Leu--NH2, Leu-Enkephalin] | 100 |

Same assay, conditions: peptide amidase, 6 h, 10000 µM, pH 7

| Yield [%/6 h] | Compound |
| --- | --- |
| 100 | N=C(N)NCCC[C@H](NC(=O)[C@@H]1CCCN1C(=O)OCc1ccccc1)C(=O)NCC(N)=O [Z--Pro--Arg--Gly--NH2] (Cbz-Pro-Arg-Gly-NH2) |
| 100 | CC(C)C[C@H](NC(=O)[C@@H]1CCCN1C(=O)OCc1ccccc1)C(=O)NCC(N)=O [Z--Pro--Leu--Gly--NH2] (Cbz-Pro-Leu-Gly-NH2) |
| 100 | N=C(N)NCCC[C@H](NC(=O)[C@@H]1CCCN1)C(=O)NCC(N)=O [H--Pro--Arg--Gly--NH2] (H-Pro-Arg-Gly-NH2) |
| 100 | CC(C)C[C@H](NC(=O)CNC(=O)CNC(=O)OCc1ccccc1)C(N)=O [Z--Gly--Gly--Leu--NH2] (Cbz-Gly-Gly-Leu-NH2) |
| 100 | CC(C)C[C@H](NC(=O)CNC(c1ccccc1)(c1ccccc1)c1ccccc1)C(=O)N[C@H](C(N)=O)C(C)C [Trt--Gly--Leu--Val--NH2] |
| 0 | CC(C)[C@H](NC(=O)OCc1ccccc1)C(=O)NCC(=O)N[C@@H](C)C(=O)N1CCC[C@H]1C(N)=O [Z--Val--Gly--Ala--Pro--NH2] (Cbz-VGAP-NH2) |

Source: patent US5369016A, “Peptide amidase and the use thereof” (Forschungszentrum Juelich GmbH, priority 1990, dated 1994)
